# Test results published in patent US7884127B2, “Inhibitors of cyclin dependent kinases and their use” (Pirimal Life Sciences Ltd., priority 2002, dated 2011).
row,melting point,Structure (SMILES)
1,189 to 190 °C,CN1CC[C@@H](c2c(O)cc(O)c3c(=O)cc(-c4cc(O)ccc4Cl)oc23)[C@@H]1CO.Cl
2,95 to 97 °C,"COc1cc(OC)c2c(=O)cc(-c3ccccc3Cl)oc2c1[C@@H]1CCN(C)[C@H]1CO (racemic) [Example 7, (±)-trans-2-(2-Chloro-phenyl)-8-(2-hydroxymethyl-1-methyl-pyrrolidin-3-yl)-5,7-dimethoxy-chromen-4-one]"
3,253 to 254 °C,"CN1CC[C@@H](c2c(O)cc(O)c3c(=O)cc(-c4cc(F)ccc4Cl)oc23)[C@@H]1CO (racemic) [Example 23, (±)-trans-2-(2-Chloro-5-fluoro-phenyl)-5,7-dihydroxy-8-(2-hydroxymethyl-1-methyl-pyrrolidin-3-yl)-chromen-4-one]"
4,192 to 193 °C,"CN1CC[C@@H](c2c(O)cc(O)c3c(=O)cc(-c4cc(F)ccc4Cl)oc23)[C@@H]1CO.CS(=O)(=O)O (racemic) [Example 25, (±)-trans-2-(2-Chloro-5-fluoro-phenyl)-5,7-dihydroxy-8-(2-hydroxymethyl-1-methyl-pyrrolidin-3-yl)-chromen-4-one methane sulfonate]"
5,114 to 115 °C,"COc1cc(OC)c2c(=O)cc(-c3ccc(C(F)(F)F)cc3)oc2c1[C@@H]1CCN(C)[C@H]1CO (racemic) [Example 62, (±)-trans-8-(2-Hydroxymethyl-1-methyl-pyrrolidin-3-yl)-5,7-dimethoxy-2-(4-trifluoromethyl-phenyl)-chromen-4-one]"
6,238 °C,"CN1CC[C@@H](c2c(O)cc(O)c3c(=O)cc(-c4ccc(C(F)(F)F)cc4)oc23)[C@@H]1CO (racemic) [Example 63, (±)-trans-5,7-Dihydroxy-8-(2-hydroxymethyl-1-methyl-pyrrolidin-3-yl)-2-(4-trifluoromethyl-phenyl)-chromen-4-one]"
7,214 to 216 °C,"COc1cc(OC)c2c(=O)cc(-c3ccc(C#N)cc3)oc2c1[C@@H]1CCN(C)[C@H]1CO (racemic) [Example 81, (±)-trans-4-[8-(2-Hydroxymethyl-1-methyl-pyrrolidin-3-yl)-5,7-dimethoxy-4-oxo-4H-chromen-2-yl]-benzonitrile]"
8,212 to 213 °C,"CN1CC[C@@H](c2c(O)cc(O)c3c(=O)cc(-c4ccccc4O)oc23)[C@@H]1CO (racemic) [Example 96, (±)-trans-5,7-Dihydroxy-8-(2-hydroxymethyl-1-methyl-pyrrolidin-3-yl)-2-(2-hydroxy-phenyl)-chromen-4-one]"
9,208 to 210 °C,"CNc1ccc(Cl)c(-c2cc(=O)c3c(O)cc(O)c([C@@H]4CCN(C)[C@H]4CO)c3o2)c1 (racemic) [Example 102, (±)-trans-2-(2-Chloro-5-methylamino-phenyl)-5,7-dihydroxy-8-(2-hydroxymethyl-1-methyl-pyrrolidin-3-yl)-chromen-4-one]"
10,> 300 °C,"CN1CC[C@@H](c2c(O)cc(O)c3c(=O)cc(-c4ccc(O)cc4Cl)oc23)[C@@H]1CO (racemic) [Example 104, (±)-trans-2-(2-Chloro-4-hydroxy-phenyl)-5,7-dihydroxy-8-(2-hydroxymethyl-1-methyl-pyrrolidin-3-yl)-chromen-4-one]"
11,218 to 219 °C,"CN1CC[C@@H](c2c(O)cc(O)c3c(=O)cc(-c4ccccc4Cl)oc23)[C@@H]1CN (racemic) [Example 109, (±)-trans-8-(2-Aminomethyl-1-methyl-pyrrolidin-3-yl)-2-(2-chloro-phenyl)-5,7-dihydroxy-chromen-4-one]"
12,107 to 108 °C,"CN1CC[C@@H](c2c(O)cc(O)c3c(=O)cc(-c4ccccc4Cl)oc23)[C@@H]1CC#N (racemic) [Example 111, (±)-trans-{3-[2-(2-Chloro-phenyl)-5,7-dihydroxy-4-oxo-4H-chromen-8-yl]-1-methyl-pyrrolidin-2-yl}-acetonitrile]"
13,249 to 250 °C,"CN1CC[C@@H](c2c(O)cc(O)c3c(=O)cc(-c4ccccc4Cl)oc23)[C@@H]1Cn1ccnc1 (racemic) [Example 113, (±)-trans-2-(2-Chloro-phenyl)-5,7-dihydroxy-8-(2-imidazol-1-ylmethyl-1-methyl-pyrrolidin-3-yl)-chromen-4-one]"
14,205 to 206 °C,"CN1CC[C@@H](c2c(O)cc(O)c3c(=O)cc(-c4ccccc4Cl)oc23)[C@@H]1CS (racemic) [Example 115, (±)-trans-2-(2-Chloro-phenyl)-5,7-dihydroxy-8-(2-mercaptomethyl-1-methyl-pyrrolidin-3-yl)-chromen-4-one]"
15,94 to 96 °C,"CCCN1CC[C@@H](c2c(O)cc(O)c3c(=O)cc(-c4ccccc4Cl)oc23)[C@@H]1CO (racemic) [Example 132, (±)-trans-2-(2-Chloro-phenyl)-5,7-dihydroxy-8-(2-hydroxymethyl-1-propyl-pyrrolidin-3-yl)-chromen-4-one]"
16,165 to 167 °C,"COc1cc(OC)c2c(=O)cc(-c3ccccc3Cl)oc2c1[C@@H]1CCN(C)[C@H]1C(=O)O (racemic) [Example 143, (±)-trans-3-[2-(2-Chloro-phenyl)-5,7-dimethoxy-4-oxo-4H-chromen-8-yl]-1-methyl-pyrrolidine-2-carboxylic acid]"
17,295 to 297 °C,"CN1CC[C@@H](c2c(O)cc(O)c3c(=O)cc(-c4ccccc4Cl)oc23)[C@@H]1C(=O)O (racemic) [Example 144, (±)-trans-3-[2-(2-Chloro-phenyl)-5,7-dihydroxy-4-oxo-4H-chromen-8-yl]-1-methyl-pyrrolidine-2-carboxylic acid]"
18,91 to 93 °C,"COc1cc(OC)c2c(=O)cc(-c3ccccc3Cl)oc2c1[C@@H]1CCN(C)[C@H]1CO [Example 13, (+)-trans-2-(2-Chloro-phenyl)-8-(2-hydroxymethyl-1-methyl-pyrrolidin-3-yl)-5,7-dimethoxy-chromen-4-one]"
19,233 to 235 °C,"CN1CC[C@@H](c2c(O)cc(O)c3c(=O)cc(-c4ccccc4I)oc23)[C@@H]1CO [Example 19, (+)-trans-5,7-Dihydroxy-8-(2-hydroxymethyl-1-methyl-pyrrolidin-3-yl)-2-(2-iodo-phenyl)-chromen-4-one]"
20,206 to 208 °C,"CN1CC[C@@H](c2c(O)cc(O)c3c(=O)cc(-c4ccccc4F)oc23)[C@@H]1CO [Example 21, (+)-trans-2-(2-Fluoro-phenyl)-5,7-dihydroxy-8-(2-hydroxymethyl-1-methyl-pyrrolidin-3-yl)-chromen-4-one]"
21,206 to 208 °C,"Cc1ccc(Cl)c(-c2cc(=O)c3c(O)cc(O)c([C@@H]4CCN(C)[C@H]4CO)c3o2)c1 [Example 38, (+)-trans-2-(2-Chloro-5-methyl-phenyl)-5,7-dihydroxy-8-(2-hydroxymethyl-1-methyl-pyrrolidin-3-yl)-chromen-4-one]"
22,186 °C,"CN1CC[C@@H](c2c(O)cc(O)c3c(=O)cc(-c4ccc([N+](=O)[O-])cc4Br)oc23)[C@@H]1CO [Example 42, (+)-trans-2-(2-Bromo-4-nitro-phenyl)-5,7-dihydroxy-8-(2-hydroxymethyl-1-methyl-pyrrolidin-3-yl)-chromen-4-one]"
23,212 to 215 °C,"CN1CC[C@@H](c2c(O)cc(O)c3c(=O)cc(-c4ccccc4)oc23)[C@@H]1CO [Example 57, (+)-trans-5,7-Dihydroxy-8-(2-hydroxymethyl-1-methyl-pyrrolidin-3-yl)-2-phenyl-chromen-4-one]"
